Laboratory results published in publication PMC7360687, “The Regulator PltZ Regulates a Putative ABC Transporter System PltIJKNOP of Pseudomonas aeruginosa ATCC 27853 in Response to the Antimicrobial 2,4-Diacetylphloroglucinol” (Frontiers in Microbiology, 2020).

Target: T1, PltZ
T1 construct: full gene cloned in pET-28b-derived vector, E. coli BL21 (DE3), Ni-NTA purified (His tag implied)
Experiment: isothermal titration calorimetry
Design: species or system Pseudomonas aeruginosa
Conditions: 25 °C; 20 mM Tris pH 8.0, 100 mM NaCl; independent binding model; read-out: binding constant

In the case of `CC(=O)c1c(O)cc(O)c(C(C)=O)c1O` [2,4-diacetylphloroglucinol], the Kd is reported as roughly 190 nM.
